Laboratory results reported in patent US10208003B2, “Synthesis of amine substituted 4,5,6,7-tetrahydrobenzothiazole compounds” (KNOPP BIOSCIENCES LLC, priority 2011, dated 2019).

With `CCCN[C@@H]1CCc2nc(N)sc2C1.Cl.Cl` [Form B, (R)-(+)-2-amino-4,5,6,7-tetrahydro-6-(n-propylamino)benzothiazole dihydrochloride] the “polymorphic form conversion under exposure to humidity and/or moisture” value was “converts to Form A”.
